Laboratory results reported in patent EP0062407A1, “Therapeutic compounds containing beta-lactams” (BEECHAM GROUP PLC, priority 1981, dated 1982).
In brackets after ≈: the same amount, converted by molar mass.

Experiments:
Staph. aureus Russell = assay: Synergistic activity in vitro with amoxycillin; assay type: cell-based, Staphylococcus aureus; set-up: Synergistic activity in vitro: unit not given beside the values; conditions: for Synergistic activity in vitro: Staph. aureus Russell
Klebsiella aerogenes E70 = assay: Synergistic activity in vitro with amoxycillin; assay type: cell-based; set-up: Synergistic activity in vitro: unit not given beside the values; conditions: for Synergistic activity in vitro: Klebsiella aerogenes E70
E. coli JT 39 = assay: Synergistic activity in vitro with amoxycillin; assay type: cell-based, Escherichia coli; conditions: for Synergistic activity in vitro: E. coli JT 39
S. aureus Russell = assay: Antibacterial activity of quaternary amine derivatives alone; assay type: cell-based; conditions: Staphylococcus aureus, compound alone
K. aerogenes E70 = assay: as above; assay type: cell-based; conditions: Klebsiella aerogenes, compound alone
E. coli JT39 = assay: as above; assay type: cell-based; conditions: Escherichia coli, compound alone
[1] = amoxycillin with inhibitor, Inhibitor Conc 1
[2] = amoxycillin with inhibitor, Inhibitor Conc 5
[3] = amoxycillin alone, no inhibitor

`CC[N+](C)(C/C=C1\O[C@@H]2CC(=O)N2[C@H]1C(=O)[O-])Cc1ccccc1` (some centres unmarked) [Example No 2, 9-(N-Benzyl-N-ethvl-N-methyl)ammonio-9-deoxyclavulanate] was tested, and the “Synergistic activity in vitro” value (Staph. aureus Russell; [1]) was 0.16, the “Synergistic activity in vitro” value (Klebsiella aerogenes E70; [1]) was 12.5 and the “Synergistic activity in vitro” value (Klebsiella aerogenes E70; [2]) was 3.1. The “Synergistic activity in vitro” value (E. coli JT 39; [1]) was 16 and the “Synergistic activity in vitro” value (E. coli JT 39; [2]) was 4.
`CC[N+](C)(C)C/C=C1\O[C@@H]2CC(=O)N2[C@H]1C(=O)[O-]` [Example No. 5, 9-(N,N-dimethyl-N-ethyl)ammonio-9-deoxyclavulanate] showed an MIC (S. aureus Russell) of 31 µg/mL (≈ 122 µM), an MIC (K. aerogenes E70) of 250 µg/mL (≈ 983 µM) and an MIC (E. coli JT39) of 62 µg/mL (≈ 244 µM).
For `CC1(C)S[C@@H]2[C@H](NC(=O)[C@H](N)c3ccc(O)cc3)C(=O)N2[C@H]1C(=O)O` [Amoxycillin, reference compound], the “MIC µg/ml amoxycillin” value (Staph. aureus Russell; S. aureus Russell, amoxycillin alone) was 500 µg/mL, the “Synergistic activity in vitro” value (Staph. aureus Russell; [3]) was 1000 and the “MIC µg/ml amoxycillin” value (Klebsiella aerogenes E70; K. aerogenes E70, amoxycillin alone) was 1000 µg/mL. For the same compound, the “Synergistic activity in vitro” value (Klebsiella aerogenes E70; [3]) was 500, the “MIC µg/ml amoxycillin” value (E. coli JT 39; E. coli JT39, amoxycillin alone) was 2000 µg/mL and the “Synergistic activity in vitro” value (E. coli JT 39; [3]) was ≥2000.
Compound `CC[N+](CC)(CC)C/C=C1\O[C@@H]2CC(=O)N2[C@H]1C(=O)[O-]` [Example No. 6, 9-N,N,N-triethylammonio-9-deoxyclavulanate] has an MIC (S. aureus Russell) of 31 µg/mL (≈ 110 µM), an MIC (K. aerogenes E70) of 500 µg/mL (≈ 1770 µM) and an MIC (E. coli JT39) of 125 µg/mL (≈ 443 µM).
With `C[N+](C)(C/C=C1\O[C@@H]2CC(=O)N2[C@H]1C(=O)[O-])Cc1ccccc1` [Example No 1, 9-(N-Benzyl-N,N-dimethyl)ammonio-9-deoxyclavulanate] the “Synergistic activity in vitro” value (Staph. aureus Russell; [1]) was 0.62, the “Synergistic activity in vitro” value (Staph. aureus Russell; [2]) was 0.08 and the “Synergistic activity in vitro” value (Klebsiella aerogenes E70; [1]) was 6.2. The “Synergistic activity in vitro” value (Klebsiella aerogenes E70; [2]) was 3.1, the “Synergistic activity in vitro” value (E. coli JT 39; [1]) was 8 and the “Synergistic activity in vitro” value (E. coli JT 39; [2]) was 2.
With `C[N+](C)(C)C/C=C1\O[C@@H]2CC(=O)N2[C@H]1C(=O)[O-]` [Example No. 7, 9-N,N,N,-trimethylammonio-9-deoxyclavulanate] the MIC (S. aureus Russell) was 4 µg/mL (≈ 16.6 µM), the MIC (K. aerogenes E70) was 62.5 µg/mL (≈ 260 µM) and the MIC (E. coli JT39) was 16 µg/mL (≈ 66.6 µM).
